According to patent US8394856B2, “(-)-Hydroxycitric acid for controlling inflammation” (Glykon Technologies Group, LLC, priority 2002, dated 2013):

Legend:
[1] = test system: C-reactive protein; test: C-reactive protein in serum of rats fed a 30% fat, approximately 20% simple sugar diet; type: in vivo; details: salt approximately 76 mg/day
Source text: (§1) To test the properties of HCA in various forms under conditions similar to those found in human clinical trials, the inventor arranged for rats to be fed a diet in which 30% of the calories were obtained from fat under standard conditions, with a further approximately 20% of the calories being supplied as simple sugars. Such a dietary combination of fat and simple sugars is noted as promoting a variety of metabolic imbalances and dysfunctions. The rats were intubated twice daily with one of five HCA salts or placebo. On weekends, the HCA was added to the food at an approprate dosage. The amount of HCA in each arm of 8 animals was based on the minimum dosage which had been found effective in the form of the pure trisodium salt of HCA in tests by Hoffmann-La Roche in animals ingesting a 70% glucose diet, i.e., 0.33 mmoles/kg body weight HCA given twice per day. […]
Tests were performed for C-reactive protein. […] Optical Density (OD) readings in the test kit used were 1 unit equals 50 picograms/mL. […]

[2] = Body weight in the same rat study; type: in vivo, rats; details: week 6; data not shown
Source text: as §1, with “day. The HCA salts used were these: KCaHCA=a mixed potassium and calcium or double metal HCA salt commercially marketed as being entirely water soluble and of relatively high purity; KHCA=a relatively clean commercial potassium salt of HCA with a good mineral ligand attachment supplying 4467 mg potassium/100 grams of material; KMgHCA=three different dosage levels of an experimental potassium and magnesium salt with special characteristics, but suspected of being relatively unstable when exposed to stomach acid.” for “day.”

[3] = literature (Sullivan and Gruen 1985); cited from earlier work
[4] = treated rats; Roche researchers (Sullivan and Triscari 1976); cited from earlier work

Structure (SMILES)	absolute CRP readings at week 4 compared with initially [1]	Δ OD units after 4 wks (C-reactive protein) ([1]; intubated twice daily, serum, start to week 4, 1 OD unit equals 50 picograms/mL) [OD units]	body weight versus control [2]	crossing of the blood-brain barrier [3]	plasma levels of glucose, insulin, or free fatty acids relative to controls [4]
O=C([O-])CC(O)(C(=O)[O-])C(O)C(=O)[O-].[K+].[K+].[K+] (centres unmarked) [KHCA, potassium hydroxycitrate]	lower at week 4 than initially	−155	greatest trend differences	–	–
O=C(O)CC(O)(C(=O)O)C(O)C(=O)O (single isomer, unassigned; (-)) [HCA, (−)-Hydroxycitric acid]	–	–	–	does not cross the blood-brain barrier	no significant differences
